Earlier results, collected in patent US20230265432A1, “METHODS AND COMPOSITIONS FOR TREATING ACUTE MYELOID LEUKEMIA” (Sanford Burnham Prebys Medical Discovery Institute, priority 2021, published 2023).
pEC50, pIC50, pKd, pKi: −log10 of the molar value. Structures can show the parent of a compound that is named as a salt.

Columns and labels:
EZH2 (Y641F) = EZH2 (Y641F) (Homo sapiens, UniProt Q15910, Y641F); conditions: cited from earlier work
EZH2 = EZH2 (Homo sapiens, UniProt Q15910); conditions: cited from earlier work
[1] = tested on: EZH2 mutant DLBCL cell lines; conditions: proliferation; cited from earlier work
EZH1 = EZH1 (Homo sapiens, UniProt Q92800); conditions: cited from earlier work
[2] = tested on: H3K9 dimethylation in MDA-MB231 cells; conditions: cited from earlier work
[3] = biological target: G9a and GLP methyltransferases; conditions: competitive with H3K9 substrates; cited from earlier work
[4] = tested on: H3K9 dimethylation levels in PANC-1 cells; conditions: cited from earlier work
[5] = tested on: histone methylation in cells; conditions: cited from earlier work
SIRT5 = SIRT5 (Homo sapiens, UniProt Q9NXA8); conditions: cited from earlier work
MOF = MOF (Homo sapiens, UniProt Q9H7Z6); conditions: cited from earlier work
[6] = biological target: jumonji histone demethylase (JMJD2); conditions: cited from earlier work
REV-ERBa = REV-ERBa (Homo sapiens, UniProt P20393); conditions: agonist; cited from earlier work
GLP = GLP (Homo sapiens, UniProt Q9H9B1); conditions: cited from earlier work
SMYD2 = SMYD2 (Homo sapiens, UniProt Q9NRG4); conditions: cited from earlier work
HDAC8 = HDAC8 (Homo sapiens, UniProt Q9BY41); conditions: cited from earlier work
[7] = tested on: HDAC activity in HeLa cell nuclear lysates; conditions: cited from earlier work
neuroblastoma tumor = conditions: 200 mg/kg; cited from earlier work
CBP = CBP (Homo sapiens, UniProt Q92793); conditions: cited from earlier work
[8] = tested on: H3K27methylation in MCF10A cells; conditions: cited from earlier work
[9] = tested on: phosphorylation of histone 2A at Thr120 in DU-145 human prostate cancer cells; conditions: cited from earlier work
DNA methyltransferase = conditions: cited from earlier work
PARP = conditions: cited from earlier work
yeast Hmt1p = yeast Hmt1p (Saccharomyces cerevisiae, UniProt P38074); conditions: cited from earlier work
[10] = biological target: T1, HIV-1 reverse transcriptase (Human immunodeficiency virus type 1 group M subtype B, UniProt P04585); conditions: cited from earlier work
T1 construct: HIV-1 reverse transcriptase

[11] = tested on: trimethylation of H3K27 in HCC1806 cells; conditions: cited from earlier work
EGFR = EGFR (Homo sapiens, UniProt P00533); conditions: cited from earlier work
UTX = UTX (Homo sapiens, UniProt O15550); conditions: as measured by mass spectrometry; cited from earlier work
JAK2 = biological target: T2, JAK2 (Homo sapiens, UniProt O60674, V617F); conditions: in HEL cells; cited from earlier work
T2 construct: endogenous in cells; host or cells: HEL cells

STAT3 = biological target: T3, STAT3 (Homo sapiens, UniProt P40763); conditions: in HEL cells; cited from earlier work
T3 construct: endogenous in cells; host or cells: HEL cells

human dermal fibroblasts = conditions: cited from earlier work
HDAC6 = biological target: T4, HDAC6 (Homo sapiens, UniProt Q9UBN7); conditions: cited from earlier work
T4 sequence (Q9UBN7 1-1215): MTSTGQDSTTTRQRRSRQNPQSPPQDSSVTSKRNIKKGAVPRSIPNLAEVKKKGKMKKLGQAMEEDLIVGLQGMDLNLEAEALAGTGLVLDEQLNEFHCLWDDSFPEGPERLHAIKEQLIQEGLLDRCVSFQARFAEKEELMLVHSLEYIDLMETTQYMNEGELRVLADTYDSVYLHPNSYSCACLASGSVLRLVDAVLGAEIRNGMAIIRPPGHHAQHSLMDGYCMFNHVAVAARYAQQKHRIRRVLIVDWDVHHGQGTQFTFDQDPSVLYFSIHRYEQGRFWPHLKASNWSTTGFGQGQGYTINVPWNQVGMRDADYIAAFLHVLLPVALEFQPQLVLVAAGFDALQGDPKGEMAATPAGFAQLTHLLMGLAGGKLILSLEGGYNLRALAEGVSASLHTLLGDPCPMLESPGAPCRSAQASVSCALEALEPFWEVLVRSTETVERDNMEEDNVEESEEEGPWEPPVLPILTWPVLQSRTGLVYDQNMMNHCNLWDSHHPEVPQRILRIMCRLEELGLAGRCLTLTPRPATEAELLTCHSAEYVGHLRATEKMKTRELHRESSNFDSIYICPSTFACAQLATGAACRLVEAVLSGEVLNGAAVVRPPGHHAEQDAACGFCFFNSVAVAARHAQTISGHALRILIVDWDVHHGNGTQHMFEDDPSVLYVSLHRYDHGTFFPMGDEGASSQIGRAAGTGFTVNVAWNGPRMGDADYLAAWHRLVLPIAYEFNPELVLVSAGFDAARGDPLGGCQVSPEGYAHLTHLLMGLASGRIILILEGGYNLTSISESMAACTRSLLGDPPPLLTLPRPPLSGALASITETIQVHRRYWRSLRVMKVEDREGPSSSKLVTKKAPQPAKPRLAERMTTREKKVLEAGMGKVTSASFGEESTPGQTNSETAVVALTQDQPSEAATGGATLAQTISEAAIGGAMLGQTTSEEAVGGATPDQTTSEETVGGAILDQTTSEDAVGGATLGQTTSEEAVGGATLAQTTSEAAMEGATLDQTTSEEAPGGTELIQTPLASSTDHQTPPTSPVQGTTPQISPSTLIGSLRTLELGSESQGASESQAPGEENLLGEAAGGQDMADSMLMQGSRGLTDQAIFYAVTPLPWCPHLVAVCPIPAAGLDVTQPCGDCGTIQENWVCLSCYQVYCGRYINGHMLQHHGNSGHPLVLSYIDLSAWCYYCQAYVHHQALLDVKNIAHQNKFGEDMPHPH

HuT-78 cells = conditions: cited from earlier work
HDAC2 = HDAC2 (Homo sapiens, UniProt Q92769); conditions: cited from earlier work
HCT116 = conditions: cited from earlier work
HDAC4 = HDAC4 (Homo sapiens, UniProt P56524); conditions: cited from earlier work
[12] = tested on: various cancer cell lines; conditions: proliferation; cited from earlier work
[13] = tested on: p53K370 monomethylation in cells; conditions: cited from earlier work
SIRT3 = SIRT3 (Homo sapiens, UniProt Q9NTG7); conditions: cited from earlier work
SIRT2 = SIRT2 (Homo sapiens, UniProt Q8IXJ6); conditions: cited from earlier work
BRD2 = BRD2 (Homo sapiens, UniProt P25440); conditions: cited from earlier work
BRD3 = BRD3 (Homo sapiens, UniProt Q15059); conditions: cited from earlier work
JMJD2B = JMJD2B (Homo sapiens, UniProt O94953); conditions: cited from earlier work
JMJD2A = JMJD2A (Homo sapiens, UniProt O75164); conditions: cited from earlier work
[14] = tested on: trimethylation of the PRC2 target H3K27; conditions: cited from earlier work
MLL core complex = MLL core complex (Homo sapiens, UniProt P61964); conditions: in vitro; cited from earlier work
WDR5 = WDR5 (Homo sapiens, UniProt P61964); conditions: cited from earlier work

Chain of EZH2 (Q15910 whole entry, species assumed): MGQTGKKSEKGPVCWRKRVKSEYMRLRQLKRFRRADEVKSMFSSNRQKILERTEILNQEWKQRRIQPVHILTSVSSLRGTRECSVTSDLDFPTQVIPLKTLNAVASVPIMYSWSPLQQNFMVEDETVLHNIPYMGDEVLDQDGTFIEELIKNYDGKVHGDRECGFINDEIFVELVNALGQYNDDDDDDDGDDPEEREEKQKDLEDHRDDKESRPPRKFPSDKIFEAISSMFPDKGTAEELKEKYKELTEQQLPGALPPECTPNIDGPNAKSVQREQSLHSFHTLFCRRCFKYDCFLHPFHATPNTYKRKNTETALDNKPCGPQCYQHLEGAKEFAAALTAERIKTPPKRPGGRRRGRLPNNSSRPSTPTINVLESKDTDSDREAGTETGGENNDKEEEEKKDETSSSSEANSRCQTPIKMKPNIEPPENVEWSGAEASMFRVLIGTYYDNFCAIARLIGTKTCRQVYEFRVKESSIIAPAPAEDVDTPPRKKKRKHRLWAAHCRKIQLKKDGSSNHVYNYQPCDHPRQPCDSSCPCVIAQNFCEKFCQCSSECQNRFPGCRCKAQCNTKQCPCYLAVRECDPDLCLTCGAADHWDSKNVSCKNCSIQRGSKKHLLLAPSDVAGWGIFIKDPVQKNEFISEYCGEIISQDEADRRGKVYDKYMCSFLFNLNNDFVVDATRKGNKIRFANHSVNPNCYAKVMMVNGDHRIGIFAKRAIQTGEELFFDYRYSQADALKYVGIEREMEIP
Chain of EZH1 (Q92800 whole entry, species assumed): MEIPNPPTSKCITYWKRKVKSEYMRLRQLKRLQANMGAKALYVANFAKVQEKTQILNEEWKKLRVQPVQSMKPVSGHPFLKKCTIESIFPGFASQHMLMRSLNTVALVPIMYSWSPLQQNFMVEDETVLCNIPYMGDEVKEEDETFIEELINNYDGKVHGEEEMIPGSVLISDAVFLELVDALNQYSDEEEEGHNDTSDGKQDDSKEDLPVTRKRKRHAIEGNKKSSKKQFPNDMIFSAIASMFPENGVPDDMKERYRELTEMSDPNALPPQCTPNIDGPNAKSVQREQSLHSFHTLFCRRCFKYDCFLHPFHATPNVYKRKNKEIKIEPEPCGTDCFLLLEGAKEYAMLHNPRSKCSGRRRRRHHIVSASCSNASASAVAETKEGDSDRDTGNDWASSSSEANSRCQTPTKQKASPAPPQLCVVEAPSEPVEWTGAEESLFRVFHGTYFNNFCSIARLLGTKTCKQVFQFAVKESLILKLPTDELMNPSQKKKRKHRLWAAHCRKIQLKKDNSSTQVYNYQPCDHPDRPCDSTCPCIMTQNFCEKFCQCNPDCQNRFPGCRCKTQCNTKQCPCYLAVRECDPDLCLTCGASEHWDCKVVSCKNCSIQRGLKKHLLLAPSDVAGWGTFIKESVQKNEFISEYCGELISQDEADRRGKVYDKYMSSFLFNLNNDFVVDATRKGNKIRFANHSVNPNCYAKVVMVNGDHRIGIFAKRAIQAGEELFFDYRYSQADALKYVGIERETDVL
Chain of EZH1 (O75530 whole entry partner, species assumed): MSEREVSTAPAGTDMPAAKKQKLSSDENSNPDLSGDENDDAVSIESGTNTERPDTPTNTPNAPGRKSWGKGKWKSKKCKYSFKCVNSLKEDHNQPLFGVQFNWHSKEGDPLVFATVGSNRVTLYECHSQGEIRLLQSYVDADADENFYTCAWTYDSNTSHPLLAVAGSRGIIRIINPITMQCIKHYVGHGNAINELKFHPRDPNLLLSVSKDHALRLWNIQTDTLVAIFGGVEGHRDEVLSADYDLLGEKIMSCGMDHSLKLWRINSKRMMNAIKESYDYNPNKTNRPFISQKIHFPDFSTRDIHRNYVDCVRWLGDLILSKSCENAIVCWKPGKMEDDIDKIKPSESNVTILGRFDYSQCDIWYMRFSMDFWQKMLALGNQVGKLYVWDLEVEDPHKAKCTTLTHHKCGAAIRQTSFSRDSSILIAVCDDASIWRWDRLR
Chain of EZH1 (Q15022 whole entry partner, species assumed): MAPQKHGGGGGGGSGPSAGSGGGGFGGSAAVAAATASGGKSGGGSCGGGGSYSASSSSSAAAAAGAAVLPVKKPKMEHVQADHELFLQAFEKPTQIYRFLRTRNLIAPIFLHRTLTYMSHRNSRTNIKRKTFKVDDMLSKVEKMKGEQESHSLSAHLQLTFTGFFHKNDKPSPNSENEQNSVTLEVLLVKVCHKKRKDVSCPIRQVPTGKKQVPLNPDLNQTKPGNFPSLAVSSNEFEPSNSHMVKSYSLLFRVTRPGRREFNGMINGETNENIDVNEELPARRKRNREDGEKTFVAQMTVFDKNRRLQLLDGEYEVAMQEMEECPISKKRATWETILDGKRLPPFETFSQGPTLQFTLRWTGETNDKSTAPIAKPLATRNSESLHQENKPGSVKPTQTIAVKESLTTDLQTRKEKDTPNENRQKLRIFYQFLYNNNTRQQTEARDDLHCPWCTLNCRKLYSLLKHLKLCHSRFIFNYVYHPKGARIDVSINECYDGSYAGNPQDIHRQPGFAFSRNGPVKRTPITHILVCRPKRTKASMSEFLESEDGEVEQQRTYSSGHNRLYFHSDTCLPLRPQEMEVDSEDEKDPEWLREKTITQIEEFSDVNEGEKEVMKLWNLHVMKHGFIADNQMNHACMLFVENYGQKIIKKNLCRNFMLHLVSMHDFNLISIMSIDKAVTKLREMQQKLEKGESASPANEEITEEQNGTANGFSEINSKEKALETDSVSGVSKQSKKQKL
Chain of EZH1 (Q09028 whole entry partner, species assumed): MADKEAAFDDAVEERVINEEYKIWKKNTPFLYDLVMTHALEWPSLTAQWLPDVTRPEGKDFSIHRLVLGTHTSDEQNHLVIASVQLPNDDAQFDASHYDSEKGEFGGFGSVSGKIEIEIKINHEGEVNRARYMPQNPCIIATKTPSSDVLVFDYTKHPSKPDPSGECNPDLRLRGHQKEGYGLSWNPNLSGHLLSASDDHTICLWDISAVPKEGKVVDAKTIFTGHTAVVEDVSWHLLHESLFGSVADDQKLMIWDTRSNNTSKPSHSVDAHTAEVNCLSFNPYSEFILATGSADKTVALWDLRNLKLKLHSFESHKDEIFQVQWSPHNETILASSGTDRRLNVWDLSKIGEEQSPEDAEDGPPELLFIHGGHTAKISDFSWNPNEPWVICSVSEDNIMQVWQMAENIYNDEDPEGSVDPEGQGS
Chain of SIRT3 (Q9NTG7 whole entry, species assumed): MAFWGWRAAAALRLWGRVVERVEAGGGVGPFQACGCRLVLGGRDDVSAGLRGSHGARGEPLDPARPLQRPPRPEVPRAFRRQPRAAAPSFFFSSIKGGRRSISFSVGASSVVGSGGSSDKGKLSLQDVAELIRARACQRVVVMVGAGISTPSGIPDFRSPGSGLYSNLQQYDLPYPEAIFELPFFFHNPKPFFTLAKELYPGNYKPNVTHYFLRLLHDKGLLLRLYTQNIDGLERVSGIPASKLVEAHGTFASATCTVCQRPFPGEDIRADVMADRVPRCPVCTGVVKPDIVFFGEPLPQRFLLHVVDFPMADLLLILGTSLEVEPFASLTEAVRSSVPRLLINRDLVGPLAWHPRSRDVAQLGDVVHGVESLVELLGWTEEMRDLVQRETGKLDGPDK
Chain of GLP (Q9H9B1 whole entry): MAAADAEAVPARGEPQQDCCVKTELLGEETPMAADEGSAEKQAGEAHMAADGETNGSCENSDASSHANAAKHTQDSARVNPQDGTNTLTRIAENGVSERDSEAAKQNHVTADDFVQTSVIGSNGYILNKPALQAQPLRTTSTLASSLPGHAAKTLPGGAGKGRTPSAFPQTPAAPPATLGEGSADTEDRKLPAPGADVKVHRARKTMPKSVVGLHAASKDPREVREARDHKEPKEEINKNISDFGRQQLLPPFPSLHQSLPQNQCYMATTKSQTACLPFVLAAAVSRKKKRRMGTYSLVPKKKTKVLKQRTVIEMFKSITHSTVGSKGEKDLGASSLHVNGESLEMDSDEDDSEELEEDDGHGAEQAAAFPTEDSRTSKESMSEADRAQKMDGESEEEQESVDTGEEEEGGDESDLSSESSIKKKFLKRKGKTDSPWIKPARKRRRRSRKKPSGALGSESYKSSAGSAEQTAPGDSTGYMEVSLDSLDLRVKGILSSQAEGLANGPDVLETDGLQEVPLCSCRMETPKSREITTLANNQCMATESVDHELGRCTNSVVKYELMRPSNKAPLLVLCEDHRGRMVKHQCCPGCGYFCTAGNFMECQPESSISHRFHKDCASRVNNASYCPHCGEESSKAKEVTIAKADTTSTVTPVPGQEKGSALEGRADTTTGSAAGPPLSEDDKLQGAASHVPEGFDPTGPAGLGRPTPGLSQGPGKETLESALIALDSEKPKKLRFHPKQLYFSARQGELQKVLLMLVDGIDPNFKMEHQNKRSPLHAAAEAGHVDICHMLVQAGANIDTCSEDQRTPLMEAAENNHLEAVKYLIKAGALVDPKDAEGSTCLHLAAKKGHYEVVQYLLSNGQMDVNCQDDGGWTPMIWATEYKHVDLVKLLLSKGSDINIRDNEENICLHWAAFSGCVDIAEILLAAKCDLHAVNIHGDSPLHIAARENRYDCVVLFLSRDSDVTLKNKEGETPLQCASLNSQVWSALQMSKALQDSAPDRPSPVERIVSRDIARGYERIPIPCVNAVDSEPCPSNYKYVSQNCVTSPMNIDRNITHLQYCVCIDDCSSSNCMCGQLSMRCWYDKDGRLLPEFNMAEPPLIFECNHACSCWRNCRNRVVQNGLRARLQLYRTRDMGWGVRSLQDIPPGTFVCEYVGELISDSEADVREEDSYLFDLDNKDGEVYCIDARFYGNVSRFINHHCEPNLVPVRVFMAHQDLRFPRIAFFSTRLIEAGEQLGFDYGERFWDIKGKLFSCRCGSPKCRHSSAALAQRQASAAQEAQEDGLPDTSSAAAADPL
Chain of CBP (Q92793 1081-1197 limits assumed): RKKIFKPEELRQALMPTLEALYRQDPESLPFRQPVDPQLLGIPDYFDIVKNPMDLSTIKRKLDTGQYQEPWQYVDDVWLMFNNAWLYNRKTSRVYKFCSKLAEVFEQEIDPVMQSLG

CCC(CC)n1ccc2c(C(=O)NCc3c(C)cc(C)[nH]c3=O)cc(C#N)cc21 [EI1]
pIC50 (EZH2 (Y641F)): 7.89 | pIC50 (EZH2): 7.82

CC[C@H](C)n1cc(C)c2c(C(=O)NCc3c(C)cc(C)[nH]c3=O)cc(-c3ccc(N4CCNCC4)nc3)cc21 [GSK 126]
pIC50 [1]: 7.21 to 7.55 | pIC50 (EZH1): 6.17 | pKi (EZH1): 7.05

COc1cc2c(NC3CCN(C(C)C)CC3)nc(N3CCC(F)(F)CC3)nc2cc1OCCCN1CCCC1 [UNC0642]
pIC50 [2]: 6.96 | pKi [3]: 8.43 | pIC50 [4]: 7.40

O=C(NCC(=O)N1CCCC1)Nc1ccc2cnccc2c1 [SGC707]
pIC50 [5]: > 6.00

O=c1[nH]c(=S)[nH]c(-c2ccccc2)c1Cc1c(O)ccc2ccccc12 [SIRT1/2 Inhibitor IV]
pIC50 (SIRT5): < 3.52

CCCCCCCc1ccc(CCc2cccc(O)c2C(=O)O)cc1 [MG149]
pIC50 (MOF): 4.33

CN(C)CCCNC(=O)c1ccc(-c2cc(O)c3ncccc3c2)cc1 [ML324]
pIC50 [6]: 6.04

CC(C)(C)OC(=O)CN(Cc1ccc(Cl)cc1)Cc1ccc([N+](=O)[O-])s1 [GSK4112]
pEC50 (REV-ERBa): 6.40

COc1cc2c(NC3CCN(C4CCCCC4)CC3)nc(N3CCCN(C(C)C)CC3)nc2cc1OCCCN1CCCCC1 [UNC0646]
pIC50 [2]: 7.59 | pIC50 (GLP): 7.82

O=C1COc2c(CCNCCN(C(=O)CCNCCc3ccc(Cl)c(Cl)c3)C3CCCCC3)ccc(O)c2N1 [AZ 505]
pIC50 (SMYD2): 6.92

Cc1cc(Cl)ccc1OCCCC(=O)NO [Droxinostat]
pIC50 (HDAC8): 5.84

C#CCCCC(=O)Nc1ccc(C(=O)c2ccc(NC(=O)CCCCCCC(=O)NO)cc2)cc1 [SAHA-BPyne]
pIC50 [7]: ~5.52

O=C(/C=C/c1cccc(C(=O)NO)c1)NO [CBHA]
neuroblastoma tumor growth (neuroblastoma tumor): completely suppresses neuroblastoma tumor growth in SCID

CCC(=O)N1CCOc2c(cc(-c3ccc(OC)c(OC)c3)cc2OC[C@H]2CCCN(C)C2)C1 [I-CBP112 (hydrochloride)]
pKd (CBP): 6.85

CCCc1cc(C)[nH]c(=O)c1CNC(=O)c1cc(-c2ccc(N3CCN(C(C)C)CC3)nc2)cc2c1cnn2C(C)C [UNC1999]
pIC50 [8]: 6.91 | pIC50 (EZH2): 8.70

C(=N\Nc1ncnc2sc3c(c12)CCCC3)/c1c[nH]c2ccccc12 [B32B3]
pIC50 [9]: 6.30

O=C(O)C(Cc1c[nH]c2ccccc12)N1C(=O)c2ccccc2C1=O (centres unmarked) [RG108]
pIC50 (DNA methyltransferase): 6.94

CN(C)CC(=O)Nc1ccc2[nH]c(=O)c3ccccc3c2c1 [PJ34]
pEC50 (PARP): 7.70

O=C(Nc1ccc2c(O)cc(S(=O)(=O)O)cc2c1)Nc1ccc2c(O)cc(S(=O)(=O)O)cc2c1 [AMI-1 (sodium salt)]
pIC50 (yeast Hmt1p): 5.52 | pIC50 [10]: 5.30

CCCc1cc(C)[nH]c(=O)c1CNC(=O)c1cc(-c2ccnc(N3CCN(C)CC3)c2)cc2c1cnn2C(C)C [GSK343]
pIC50 [11]: 6.76 | pIC50 (EZH2): 8.40

AG-490 (Tyrphostin B42)
fold more selective for EGFR versus ErbB2 (EGFR): 135 fold

O=C(O)CCNc1cc(N2CCc3ccccc3CC2)nc(-c2ccccn2)n1 [GSK-J1 (sodium salt)]
pIC50 (UTX): 4.25

C[C@H](NC(=O)/C(C#N)=C/c1cccc(Br)n1)c1ccccc1 [WP1066]
pIC50 (JAK2): 5.64 | pIC50 (STAT3): 5.61

CCOC(=O)NCCCC(=O)NCCc1ccccc1 [CAY10683]
GI50 (human dermal fibroblasts): > 100000 nM | pIC50 (HDAC6): 6.36 | GI50 (HuT-78 cells): 1400 nM | pIC50 (HDAC2): 9.92 | GI50 (HCT116): 29400 nM | pIC50 (HDAC4): < 6.00

c1ccc([C@@H]2C[C@H]2NC2CCNCC2)cc1 [GSK-LSD1 (hydrochloride)]
pEC50 [12]: > 8.30

Cc1cn(CCN2CCN(c3ccccc3-c3cc(C#N)cc(C(=O)NCCCN4CCCC4)c3)CC2)c2ccccc12 [LLY-507]
pIC50 [13]: ~6.22

N#C/C(=C\c1ccc(-c2cc(Cl)ccc2Cl)o1)C(=O)Nc1cccc2cccnc12 [AGK7]
pIC50 (SIRT3): < 5.30 | pIC50 (SIRT2): < 4.30

CC(=O)N1c2ccc(-c3ccc(C(=O)O)cc3)cc2[C@H](Nc2ccc(Cl)cc2)C[C@@H]1C [GSK1324726A (I-BET726)]
pIC50 (BRD2): 7.39 | pIC50 (BRD3): 7.51

Clc1ccc(N/N=C(\c2ccccc2)c2ccccn2)nc1 [JIB-04]
pIC50 (JMJD2B): 6.36 | pIC50 (JMJD2A): 6.35

Cc1cc(C)c(CNC(=O)c2cc(-c3ccc(CN4CCOCC4)cc3)cc3c2cnn3C2CCCC2)c(=O)[nH]1 [EPZ005687]
pIC50 [14]: 7.10

COC(=O)c1ccc(N2CCN(C)CC2)c(NC(=O)c2cccc(OC)c2)c1 [WDR5-0103]
pIC50 (MLL core complex): 4.41 | pKd (WDR5): 6.35
